Data on 27 molecules can be found in PMC9604066 (International Journal of Molecular Sciences, 2022).

Data set [1] concerns YFV strain 17D (Stamaril) on Huh-7 cells. Briefly: microbe, parasite or virus in culture. Format: cell-based, yellow fever virus. Particulars: for EC50: Yellow fever virus, Huh-7.
The nature of the next data set: in vitro. Particulars: human.
The next data set relates to yellow fever. Particulars: rhesus monkey, in vivo; cited from earlier work.
Data set [2] has as its system 17D vaccine strain of YFV. Particulars: cited from earlier work.

In brackets after ≈: the same amount, converted by molar mass.

The term EC50 denotes the concentration needed to bring the measured effect to its halfway point. Read a high EC50 as a less potent agent. On to `Clc1ccccc1Cn1c(-c2cc3cc(Cc4ccc5oc(-c6nc7ccccc7n6Cc6ccccc6Cl)cc5c4)ccc3o2)nc2ccccc21` [3g, 5,5′-Methylenebis(2-[1-(o-chlorobenzyl)benzimidazol-2-yl]benzofuran)], for which, in data set [1], the half-maximal effective concentration (EC50) was over 137 µM.

The logP is the decadic logarithm of the partition coefficient of the neutral form, usually between octanol and water. A higher logP goes with a more lipophilic compound. `COc1ccc(N2C(=O)CN(C)C2c2cc3cc(Cc4ccc5oc(C6N(C)CC(=O)N6c6ccc(OC)cc6)cc5c4)ccc3o2)cc1` (stereo not drawn) [2g, (2″R,2‴R)-, (2″S,2‴S)-, and meso-(2″R,2‴S)-5,5′-Methylenebis(2-[N-methyl-3″-(4-methoxyphenyl)-4″-oxo-1″,3″-imidazolidin-2″-yl]benzofuran)]: in data set [1], the 50% effective concentration (EC50) is over 152 µM. This molecule also registered a log partition coefficient (logP) in the data set “physchem” of 4.25.

Molecule `Cc1cccc(N2C(=O)CN(C)C2c2cc3cc(Cc4ccc5oc(C6N(C)CC(=O)N6c6cccc(C)c6C)cc5c4)ccc3o2)c1C` (stereo not drawn) [2c, (2″R,2‴R)-, (2″S,2‴S)-, and meso-(2″R,2‴S)-5,5′-Methylenebis(2-[N-methyl-3″-(2,3-dimethylphenyl)-4″-oxo-1″,3″-imidazolidin-2″-yl]benzofuran)] yielded a CC50 in the data set “in vitro” of 41 µM. Further, the EC50 in data set [1] worked out at 6.75 µM. In the data set “physchem”, the lipophilicity (logP) was 3.77.

Regarding `CN1CC(=O)N(c2ccc(Cl)cc2)C1c1cc2cc(Cc3ccc4oc(C5N(C)CC(=O)N5c5ccc(Cl)cc5)cc4c3)ccc2o1` (stereo not drawn) [2i, (2″R,2‴R)-, (2″S,2‴S)-, and meso-(2″R,2‴S)-5,5′-Methylenebis(2-[N-methyl-3″-(4-chlorophenyl)-4″-oxo-1″,3″-imidazolidin-2″-yl]benzofuran)], in “in vitro”, the CC50 amounted to 12.3 µM. Further, in data set [1], the SI is reported as 0.85 and the concentration for a half-maximal effect (EC50) is 14.4 µM.

As for `Brc1cccc(Cn2c(-c3cc4cc(Cc5ccc6oc(-c7nc8ccccc8n7Cc7cccc(Br)c7)cc6c5)ccc4o3)nc3ccccc32)c1` [3i, 5,5′-Methylenebis(2-[1-(m-bromobenzyl)benzimidazol-2-yl]benzofuran)], in data set [1], the midpoint of the response, the EC50, lay at 91.6 µM.

The molecule `COc1cccc(Cn2c(-c3cc4cc(Cc5ccc6oc(-c7nc8ccccc8n7Cc7cccc(OC)c7)cc6c5)ccc4o3)nc3ccccc32)c1` [3c, 5,5′-Methylenebis(2-[1-(m-methoxybenzyl)benzimidazol-2-yl]benzofuran)] came in with a concentration for a half-maximal effect (EC50) in data set [1] of over 139 µM.

Molecule `c1ccc2c(c1)nc(-c1cc3cc(Cc4ccc5oc(-c6nc7ccccc7n6C6CCCCC6)cc5c4)ccc3o1)n2C1CCCCC1` [3l, 5,5′-Methylenebis[2-(1-cyclohexylbenzimidazol-2-yl)benzofuran]] gave a 50% effective concentration (EC50) in data set [1] of over 28.7 µM.

With `CCOC(=O)c1cc2cc(Cc3ccc4oc(C(=O)OCC)cc4c3)ccc2o1` [compound 10], in data set [1], the “activity towards YFV” value is “did not exhibit any activity” and the 50% effective concentration (EC50) is over 255 µM.

Take `COc1ccc(Cn2c(-c3cc4cc(Cc5ccc6oc(-c7nc8ccccc8n7Cc7ccc(OC)cc7)cc6c5)ccc4o3)nc3ccccc32)cc1` [3d, 5,5′-Methylenebis(2-[1-(p-methoxybenzyl)benzimidazol-2-yl]benzofuran)]: a half-maximal effect in data set [1] (EC50) was put at 27.7 µM.

The molecule `Cc1ccc(C)c(N2C(=O)CN(C)C2c2cc3cc(Cc4ccc5oc(C6N(C)CC(=O)N6c6cc(C)ccc6C)cc5c4)ccc3o2)c1` (stereo not drawn) [2d, (2″R,2‴R)-, (2″S,2‴S)-, and meso-(2″R,2‴S)-5,5′-Methylenebis(2-[N-methyl-3″-(2,5-dimethylphenyl)-4″-oxo-1″,3″-imidazolidin-2″-yl]benzofuran)] had a CC50 in the data set “in vitro” of 18.5 µM. Besides, in data set [1], the SI turned out to be 2.40 and the EC50 was 7.7 µM. The molecule also had a logP in the data set “physchem” of 4.38.

Regarding `CN1CC(=O)N(c2ccc(F)cc2)C1c1cc2cc(Cc3ccc4oc(C5N(C)CC(=O)N5c5ccc(F)cc5)cc4c3)ccc2o1` (stereo not drawn) [2h, (2″R,2‴R)-, (2″S,2‴S)-, and meso-(2″R,2‴S)-5,5′-Methylenebi(2-[N-methyl-3″-(4-fluorophenyl)-4″-oxo-1″,3″-imidazolidin-2″-yl]benzofuran)], the CC50 in “in vitro” was determined as 38.5 µM. In data set [1], the SI was determined as 1.63 and the EC50 amounted to 23.5 µM. The molecule further yielded a log partition coefficient (logP) in “physchem” of 4.6.

`CC(C)n1c(-c2cc3cc(Cc4ccc5oc(-c6nc7ccccc7n6C(C)C)cc5c4)ccc3o2)nc2ccccc21` [3j, 5,5′-Methylenebis[2-(1-isopropylbenzimidazol-2-yl)benzofuran]]: the CC50 in “in vitro” worked out at 69.3 µM. The molecule also showed an EC50 in data set [1] of 6.14 µM. In addition, the logP in the data set “physchem” came to 3.71.

In the case of `Cc1ccc(Cn2c(-c3cc4cc(Cc5ccc6oc(-c7nc8ccccc8n7Cc7ccc(C)cc7)cc6c5)ccc4o3)nc3ccccc32)cc1` [3b, 5,5′-Methylenebis(2-[1-(p-methylbenzyl)benzimidazol-2-yl]benzofuran)], in data set [1], the EC50 was over 145 µM.

Take `CN1CC(=O)N(c2cccc(C(F)(F)F)c2)C1c1cc2cc(Cc3ccc4oc(C5N(C)CC(=O)N5c5cccc(C(F)(F)F)c5)cc4c3)ccc2o1` (stereo not drawn) [2k, (2″R,2‴R)-, (2″S,2‴S)-, and meso-(2″R,2‴S)-5,5′-Methylenebis(2-[N-methyl-3″-(3-trifluoromethyl)phenyl-4″-oxo-1″,3″-imidazolidin-2″-yl]benzofuran)]: the CC50 in the data set “in vitro” is 75 µM. Further, a half-maximal effect in data set [1] (EC50) was put at 8.89 µM. In “physchem”, this molecule showed a lipophilicity (logP) of 5.16.

In data set [1], `Fc1ccccc1Cn1c(-c2cc3cc(Cc4ccc5oc(-c6nc7ccccc7n6Cc6ccccc6F)cc5c4)ccc3o2)nc2ccccc21` [3e, 5,5′-Methylenebis(2-[1-(o-fluorobenzyl)benzimidazol-2-yl]benzofuran)] displayed a concentration giving a half-maximal response (EC50) of over 21.5 µM. This molecule also displayed a log partition coefficient (logP) in the data set “physchem” of 4.65.

In turn, `Cc1ccc(N2C(=O)CN(C)C2c2cc3cc(Cc4ccc5oc(C6N(C)CC(=O)N6c6ccc(C)cc6)cc5c4)ccc3o2)cc1` (stereo not drawn) [2b, (2″R,2‴R)-, (2″S,2‴S)-, and meso-(2″R,2‴S)-5,5′-Methylenebis(2-[N-methyl-3″-(4-methylphenyl)-4″-oxo-1″,3″-imidazolidin-2″-yl]benzofuran)] showed a concentration for a half-maximal effect (EC50) in data set [1] of over 160 µM.

On to `CN1CC(=O)N(c2ccc(Br)cc2)C1c1cc2cc(Cc3ccc4oc(C5N(C)CC(=O)N5c5ccc(Br)cc5)cc4c3)ccc2o1` (stereo not drawn) [2j, (2″R,2‴R)-, (2″S,2‴S)-, and meso-(2″R,2‴S)-5,5′-Methylenebis(2-[N-methyl-3″-(4-bromophenyl)-4″-oxo-1″,3″-imidazolidin-2″-yl]benzofuran)], for which the concentration for a half-maximal effect (EC50) in data set [1] was over 133 µM.

For the molecule `O=C(O)c1cc2cc(Cc3ccc4oc(C(=O)O)cc4c3)ccc2o1` [compound 11], in data set [1], the “activity towards YFV” value is reported as “did not exhibit any activity” and the concentration giving a half-maximal response (EC50) was over 297 µM.

`c1ccc2c(c1)nc(-c1cc3cc(Cc4ccc5oc(-c6nc7ccccc7n6C6CCCC6)cc5c4)ccc3o1)n2C1CCCC1` [3k, 5,5′-Methylenebis[2-(1-cyclopentylbenzimidazol-2-yl)benzofuran]]: the EC50 in data set [1] was over 162 µM.

`Cc1cc(C)cc(N2C(=O)CN(C)C2c2cc3cc(Cc4ccc5oc(C6N(C)CC(=O)N6c6cc(C)cc(C)c6)cc5c4)ccc3o2)c1` (stereo not drawn) [2e, (2″R,2‴R)-, (2″S,2‴S)-, and meso-(2″R,2‴S)-5,5′-Methylenebis[2-(N-methyl-3″-(3,5-dimethylphenyl)-4″-oxo-1″,3″-imidazolidin-2″-yl)benzofuran]] registered a CC50 in “in vitro” of 54.1 µM. Further, the EC50 in data set [1] was found to be 3.54 µM. In addition, the lipophilicity (logP) in “physchem” worked out at 4.15.

In the case of `NC(=O)c1ncn([C@@H]2O[C@H](CO)[C@@H](O)[C@H]2O)n1` [Ribavirin], in the data set with yellow fever, the survival result is recorded as “lack of improved survival”.

Turning to `c1ccc(Cn2c(-c3cc4cc(Cc5ccc6oc(-c7nc8ccccc8n7Cc7ccccc7)cc6c5)ccc4o3)nc3ccccc32)cc1` [3a, 5,5′-Methylenebis[2-(1-benzylbenzimidazol-2-yl)benzofuran]], the 50% effective concentration (EC50) in data set [1] was over 114 µM.

A word on the EC90: it is the point of the concentration-response curve where the effect stands at 90%. Take `C[C@@]1(O)[C@H](O)[C@@H](CO)O[C@H]1n1ccc(N)nc1=O` [2-C-methylcytidine]: in data set [2], the concentration for an effect of 90% (EC90) was 0.32 mg/L (≈ 1.24 µM) and the SI was 141.

`Fc1ccc(Cn2c(-c3cc4cc(Cc5ccc6oc(-c7nc8ccccc8n7Cc7ccc(F)cc7)cc6c5)ccc4o3)nc3ccccc32)cc1` [3f, 5,5′-Methylenebis(2-[1-(p-fluorobenzyl)benzimidazol-2-yl]benzofuran)] gave a 50% effective concentration (EC50) in data set [1] of 28.7 µM. That is a double-digit micromolar value.

As to `CN1CC(=O)N(c2ccccc2)C1c1cc2cc(Cc3ccc4oc(C5N(C)CC(=O)N5c5ccccc5)cc4c3)ccc2o1` (stereo not drawn) [2a, (2″R,2‴R)-, (2″S,2‴S)-, and meso-(2″R,2‴S)-5,5′-Methylenebis[2-(N-methyl-3″-phenyl-4″-oxo-1″,3″-imidazolidin-2″-yl)benzofuran]], in data set [1], the EC50 is over 133 µM. In the data set “physchem”, this molecule displayed a logP of 4.75.

In the case of `Clc1ccc(Cn2c(-c3cc4cc(Cc5ccc6oc(-c7nc8ccccc8n7Cc7ccc(Cl)cc7)cc6c5)ccc4o3)nc3ccccc32)cc1` [3h, 5,5′-Methylenebis(2-[1-(p-chlorobenzyl)benzimidazol-2-yl]benzofuran)], the EC50 in data set [1] is over 103 µM.

Consider `O=Cc1cc2cc(Cc3ccc4oc(C=O)cc4c3)ccc2o1` [compound 7], for which, in data set [1], the “activity towards YFV” value is “did not exhibit any activity” and the EC50 was over 329 µM. Further, the log partition coefficient (logP) in the data set “physchem” came to 3.75.
